Experimental data published in patent US7820689B2, “Methods and compositions for preventing or treating cardiovascular disease” (priority 2006, dated 2010).

How the values were obtained:
[1] = tested on: macrophage NADPH oxidase; assay: Macrophage NADPH oxidase activity after LPS, lucigenin chemiluminescence; assay type: cell-based, human; conditions: LPS alone 3,310,000±1,670,000
Procedure: THP-1 cell culture was pretreated for 1 hour with the indicated concentrations of DM before stimulation with 100 ng/mL LPS. Lysis buffer was added to the cells and centrifuged. The supernatant was discarded and the pellet was resuspended. NADPH oxidase activity was measured by mixing 30 μg protein, 5 μM lucigenin, and 100 μM NADPH. Chemiluminescence was determined every 10 seconds for 15 minutes. Data are presented as mean±SD (n=8-15). ***P<0.001 compared with the LPS-treated cells.

[2] = tested on: NADPH oxidase-deficient mice; conditions: Zhang et al. 2004; cited from earlier work
[3] = tested on: plasma TNF-α; assay: Plasma TNF-α in LPS-treated FVB mice (ELISA); assay type: in vivo; conditions: 6 h, LPS only 576.1±43.6
Procedure: (§1) All mice then received 20 mg/kg LPS by intraperitoneal injection. Blood samples were obtained at 6 hours after LPS injection from a catheter placed in the left carotid artery. Blood samples were centrifuged, and the plasma TNF-α levels were measured by ELISA. Lungs were harvested from the animals 6 hours after LPS injection in each group as described above. The tissues were fixed in 4% paraformaldehyde and embedded in paraffin for histopathological examination. The presence of inflammatory cells in lungs was determined by immunofluorescence. The sections were incubated with rat monoclonal antibody against mouse CD45, a leukocyte common antigen (1:50 dilution, Pharmingen). After washing, fluorescein isothiocyanate-conjugated sheep […] immunoglobulin (Amersham Pharmacia Biotech) was applied as a secondary antibody. […] The total CD45-positive cell number was counted in five randomly selected sections under high power field magnification (400×) for each mouse. Oxidative fluorescent microtopography with the oxidative fluorescent dye dihydroethidium (DHE) was used to evaluate the in situ production of superoxide in aorta. Aortas were harvested from the animals at 6 hours after LPS injection in each group as described above. Unfixed frozen ring segments were cut into 30-μm-thick sections and placed on a glass slide. DHE (10 μM) was topically applied to each tissue section and a cover slip was applied. Slides were incubated in a light-protected humidified chamber at 37° C. for 30 minutes. Fluorescence was detected with a laser scanning confocal microscope (Leica Microsystems, Germany) with excitation at 488-nm and detection at 585-nm using a long-pass filter.

[4] = tested on: CD45-positive cells in lungs; assay: Pulmonary inflammatory cell (CD45-positive) infiltration in LPS-treated mice, immunofluorescence; assay type: in vivo; conditions: LPS only 103±16
Procedure: as §1

[5] = tested on: superoxide production in aorta; assay: Superoxide in aorta of LPS-treated mice, DHE oxidative fluorescent microtopography; assay type: in vivo
Procedure: as §1, with “Aortas were harvested from the animals at 6 hours after LPS injection in each group as described above. Unfixed frozen ring segments were cut into 30-μm-thick sections and placed on a glass slide. DHE (10 μM) was topically applied to each tissue section and a cover slip was applied. Slides were incubated in a light-protected humidified chamber at 37° C. for 30 minutes.” left out

Row | Structure (SMILES) | NADPH oxidase activity ([1]; DM 0.01 μM pretreatment) | NADPH oxidase activity ([1]; DM 0.1 μM pretreatment) | NADPH oxidase activity ([1]; DM 1 μM pretreatment) | anti-inflammatory effect [2] | plasma TNF-α level ([3]; 10 mg/kg i.p. before 20 mg/kg LPS) | plasma TNF-α level ([3]; 20 mg/kg i.p. before 20 mg/kg LPS) | plasma TNF-α level ([3]; 25 mg/kg i.p. before 20 mg/kg LPS) | infiltration of inflammatory cells in the lungs (CD45-positive cell number) ([4]; 10 mg/kg i.p. before LPS) | infiltration of inflammatory cells in the lungs (CD45-positive cell number) ([4]; 20 mg/kg i.p. before LPS) | infiltration of inflammatory cells in the lungs (CD45-positive cell number) ([4]; 25 mg/kg i.p. before LPS) | DHE staining of aorta (superoxide), FIG. 5 ([5]; 20 mg/kg naloxone pretreatment 1 hour before LPS) | DHE fluorescence intensity in aortic sections (superoxide) ([5]; 10, 20, and 25 mg/kg pretreatment, LPS-treated mice)
1 | COc1ccc2c(c1)[C@]13CCCC[C@@H]1[C@H](C2)N(C)CC3 [DM, (+)-3-methoxy-17-methyl-9α,13α,14α-morphinan] | 1,360,000±860,000 RLU/15 min/mL | 1,280,000±540,000 RLU/15 min/mL | 1,400,000±730,000 RLU/15 min/mL | anti-inflammatory effect was not observed |  |  |  |  |  |  |  | 
2 | C=CCN1CC[C@]23c4c5ccc(O)c4O[C@H]2C(=O)CC[C@@]3(O)[C@H]1C5 [Naloxone, 17-allyl-4,5α-epoxy-3,14-dihydroxymorphinan-6-one] |  |  |  |  | 452.9 ± 55.0 pg/mL | 251.9 ± 59.6 pg/mL | 288.0 ± 33.9 pg/mL | 74±10 | 58±15 | 62±12 | staining was much more reduced | significantly reduced the increase of fluorescence intensity
